Test results as given in patent US6800629B2, “Pyrazine derivatives or salts thereof, pharmaceutical composition containing the same, and production intermediates thereof” (priority 2000, dated 2004).

Columns and labels:
Format in all cases: cell-based
[1] = tested on: influenza virus (A/PR/8/34 strain); assay: Anti-influenza virus activity, plaque inhibition in MDCK cells; conditions: PR/8, MDCK; for inhibition at 10 µg/mL / inhibition at 100 µg/mL: 72 h, read-out: Inhibitory rate
Rotavirus (Ku strain) = assay: Anti-rotavirus activity, plaque inhibition in MA-104 cells; conditions: 30 μg/mL of test compound, plaque count
RS virus (A-2 strain) = assay: Anti-RS virus (respiratory syncytial virus) activity, plaque inhibition in HEp-2 cells; conditions: 30 μg/mL of test compound, plaque count

Row | Compound | inhibition at 100 µg/mL [1] [%] | other results
1 | NC(=O)c1nccn([C@@H]2O[C@H](CO)[C@@H](O)[C@H]2O)c1=O [Example I-2, 4-[(2R,3R,4S,5R)-3,4-dihydroxy-5-(hydroxymethyl)tetrahydro-2-furanyl]-3-oxo-3,4-dihydro-2-pyrazinecarboxamide] | – | inhibition at 10 µg/mL [1]: 95%
2 | NC(=O)c1nccn([C@@H]2CO[C@H](CO)[C@@H](O)[C@H]2O)c1=O [Example I-10, 4-[(3R,4S,5S,6R)-4,5-dihydroxy-6-(hydroxymethyl)tetrahydro-2H-pyran-3-yl]-3-oxo-3,4-dihydro-2-pyrazinecarboxamide] | 26 | –
3 | NC(=O)c1nc(F)cn([C@@H]2O[C@H](CO)[C@@H](O)[C@H]2O)c1=O [Example I-6, 4-[(2R,3R,4S,5R)-3,4-dihydroxy-5-(hydroxymethyl)tetrahydro-2-furanyl]-6-fluoro-3-oxo-3,4-dihydro-2-pyrazinecarboxamide] | – | inhibition at 10 µg/mL [1]: 47%
4 | NC(=O)c1nccn([C@@H]2O[C@H](COC(=O)c3ccccc3)[C@@H](OC(=O)c3ccccc3)[C@H]2OC(=O)c2ccccc2)c1=O [Example I-1, [(2R,3R,4R,5R)-5-[3-(aminocarbonyl)-2-oxo-1(2H)-pyrazinyl]-3,4-bis(benzoyloxy)tetrahydro-2-furanyl]methyl benzoate] | – | anti-rotavirus activity (Rotavirus (Ku strain)): shows an anti-rotavirus activity
5 | NC(=O)c1nccn([C@@H]2CO[C@H](CO)[C@@H](O)C2)c1=O [Example I-9, 4-[(3S,5S,6R)-5-hydroxy-6-(hydroxymethyl)tetrahydro-2H-pyran-3-yl]-3-oxo-3,4-dihydro-2-pyrazinecarboxamide] | 31 | –
6 | NC(=O)c1nccn([C@@H]2O[C@H](COP(=O)(OCc3ccccc3)OCc3ccccc3)[C@@H](O)[C@H]2O)c1=O [Example I-13, {(2R,3S,4R,5R)-5-[3-(aminocarbonyl)-2-oxo-1(2H)-pyrazinyl]-3,4-dihydroxytetrahydro-2-furanyl}methyl dibenzyl phosphate] | 39 | –
7 | NC(=O)c1nccn(C2C=CC(CO)C2)c1=O (stereo not drawn) [Example I-8, 4-[4-(hydroxymethyl)-2-cyclopenten-1-yl]-3-oxo-3,4-dihydro-2-pyrazinecarboxamide] | 42 | –
8 | NC(=O)c1nccn(C2C[C@H](O)[C@@H](CO)O2)c1=O (stereo partly drawn) [Example I-4, 4-[(4S,5R)-4-hydroxy-5-(hydroxymethyl)tetrahydro-2-furanyl]-3-oxo-3,4-dihydro-2-pyrazinecarboxamide] | 80 | –
9 | NC(=O)c1nc(F)cnc1O [6-fluoro-3-hydroxy-2-pyrazinecarboxamide] | – | inhibition at 1 µg/mL ([1]; read-out: plaque inhibitory rate): 100%
10 | NC(=O)c1nc(Cl)cn([C@@H]2O[C@H](CO)[C@@H](O)[C@H]2O)c1=O [Example I-7, 6-chloro-4-[(2R,3R,4S,5R)-3,4-dihydroxy-5-(hydroxymethyl)tetrahydro-2-furanyl]-3-oxo-3,4-dihydro-2-pyrazinecarboxamide] | 42 | –
11 | NC(=O)c1nccn([C@@H]2O[C@H](COP(=O)(O)O)[C@@H](O)[C@H]2O)c1=O [Example I-12, {(2R,3S,4R,5R)-5-[3-(aminocarbonyl)-2-oxo-1(2H)-pyrazinyl]-3,4-dihydroxytetrahydro-2-furanyl}methyl dihydrogen phosphate] | 28 | –
12 | CC(=O)OC[C@H]1O[C@@H](n2ccnc(C(=N)N)c2=O)[C@H](OC(C)=O)[C@@H]1OC(C)=O [Example I-14, (2R,3R,4R,5R)-4-(acetyloxy)-2-[(acetyloxy)methyl]-5-[3-[amino(imino)methyl]-2-oxo-1(2H)-pyrazinyl]tetrahydro-3-furanyl acetate] | – | anti-RS virus activity (RS virus (A-2 strain)): shows an anti-RS virus activity
